Measured values taken from US9511134B2, “Inducing immune responses to influenza virus using polypeptide and nucleic acid compositions” (priority 2006, dated 2016).
Where two headings read alike, the source gives them in different places. Where no end group is shown, it is not given here.

What was measured:
Experiment in all cases: biochemical
Assay type in all cases: binding
[1] = target: T1, DRB1*0101 (Homo sapiens, UniProt P01903+P01911, A100R/D57E/F55L/F60I/F76Y/I96L/L162R/M171V/P40L/Q125E/R42F/V115G/Y59C); settings: IC50 nM to purified HLA DRB1*0101
T1 construct: made in house; host or cells: EBV-transformed homozygous human B cell lines, transfected fibroblasts or single-allele 721.221 transfectants

[2] = target: T2, DRB1*0401 (Homo sapiens, UniProt P01903+P01911, A100K/A169T/F76Y/I96L/K127E/L162R/M171V/N62H/P40V/Q125Y/R42H/S133A/S149N/S66Y/V115G/V209L/W38E); settings: read-out: IC50 nM to purified HLA DRB1*0401
T2 construct: made in house; host or cells: EBV-transformed homozygous human B cell lines, transfected fibroblasts or single-allele 721.221 transfectants

[3] = target: T3, DRB4*0101 (Homo sapiens, UniProt P01903+P13762, G164S)
T3 construct: made in house; host or cells: EBV-transformed homozygous human B cell lines, transfected fibroblasts or single-allele 721.221 transfectants

[4] = target: DRB1*1302 (Homo sapiens, UniProt P01903+P01911, A100E/A169T/K41T/L162R/M171V/P40S/Q125H/Q178H/Q39Y/Q99D/R42S/S66N/T262R/V115G/W38E/Y61H); settings: read-out: IC50 nM to purified HLA DRB1*1302
[5] = target: DRB1*0404 (Homo sapiens, UniProt P01903+P01911, A100R/A169T/F76Y/I96L/K127E/L162R/M171V/N62H/P40V/Q125Y/R42H/S133A/S149N/S66Y/V209L/W38E); settings: IC50 nM to purified HLA DRB1*0404
[6] = target: T4, DRB1*0301 (Homo sapiens, UniProt P01903+P01911, A100K/A102G/A103R/A169T/F55Y/I96L/K41T/L162R/M171V/P40S/Q125H/Q178H/Q39Y/R42S/S66N/T106N/T262R/W38E/Y61H)
T4 construct: made in house; host or cells: EBV-transformed homozygous human B cell lines, transfected fibroblasts or single-allele 721.221 transfectants

[7] = target: T5, DRB1*1501 (Homo sapiens, UniProt P01903+P01911); settings: read-out: IC50 nM to purified HLA DRB1*1501
T5 construct: made in house; host or cells: EBV-transformed homozygous human B cell lines, transfected fibroblasts or single-allele 721.221 transfectants

[8] = IC50 nM to purified HLA DRB4*0101

T4 sequence (P01903 26-254, other chains not shown): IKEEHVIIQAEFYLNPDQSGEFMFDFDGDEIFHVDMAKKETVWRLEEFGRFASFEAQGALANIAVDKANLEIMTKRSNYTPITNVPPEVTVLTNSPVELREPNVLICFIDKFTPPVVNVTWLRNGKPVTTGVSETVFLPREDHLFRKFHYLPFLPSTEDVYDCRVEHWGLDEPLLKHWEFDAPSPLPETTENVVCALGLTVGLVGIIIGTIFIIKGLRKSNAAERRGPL
Chain of DRB1*1302 (P01903 26-254 limits assumed, other chains not shown): as the sequence (P01903 26-254, other chains not shown) above

Row | Compound | IC50 [1] | IC50 [2] | IC50 [3, 8] | IC50 [4] | IC50 [5] | IC50 [6] | IC50 [7] | IC50 ([7]; Table 4) | IC50 ([3]; read-out: IC50 nM to purified HLA DRB4*0101)
1 | CSCC[C@H](NC(=O)[C@H](CC(C)C)NC(=O)[C@@H](NC(=O)[C@H](CCCNC(=N)N)NC(=O)[C@H](Cc1c[nH]cn1)NC(=O)[C@@H]1CCCN1C(=O)[C@H](CO)NC(=O)[C@H](CCCNC(=N)N)NC(=O)[C@H](CC(=O)O)NC(=O)[C@H](CCCCN)NC(=O)[C@@H](NC(=O)[C@@H](NC(=O)CNC(=O)[C@@H](N)CC(N)=O)[C@@H](C)O)C(C)C)[C@@H](C)O)C(=O)N[C@@H](CO)C(=O)O [Flu.NA.126] | 581 nM | 17900 nM | 8880 nM | 7930 nM |  |  |  |  | 
2 | CC[C@H](C)[C@H](NC(=O)[C@H](CCCNC(=N)N)NC(=O)[C@H](CCCCN)NC(=O)[C@H](CC(=O)O)NC(=O)[C@H](C)NC(=O)[C@@H](NC(=O)[C@@H](NC(=O)[C@@H]1CCCN1C(=O)[C@H](Cc1ccc(O)cc1)NC(=O)[C@@H](N)CCCCN)[C@@H](C)CC)[C@@H](C)O)C(=O)N[C@@H](CCSC)C(=O)N[C@@H](CCC(=O)O)C(=O)N[C@@H](CCSC)C(=O)N[C@H](C(=O)N1CCC[C@H]1C(=O)O)[C@@H](C)CC [Flu.PB2.57] |  | 9390 nM |  | 68 nM | 2290 nM | 48 nM |  |  | 
3 | PVHFRNQVKIRRRVD [Flu.PB2.135] | 2970 nM | 1300 nM |  | 359 nM | 5980 nM | 458 nM |  |  | 
4 | CSCC[C@H](NC(=O)[C@H](C)NC(=O)[C@H](CCCCN)NC(=O)[C@@H](N)CCC(N)=O)C(=O)N[C@@H](CCSC)C(=O)N[C@@H](CC(=O)O)C(=O)N[C@@H](CCC(N)=O)C(=O)N[C@H](C(=O)N[C@@H](CCCNC(=N)N)C(=O)N[C@@H](CCC(=O)O)C(=O)N[C@@H](CO)C(=O)N[C@@H](CCCNC(=N)N)C(=O)N[C@@H](CC(N)=O)C(=O)N1CCC[C@H]1C(=O)NCC(=O)O)C(C)C [Flu.NP.238] |  |  |  |  | 1830 nM | 450 nM |  |  | 
5 | CC[C@H](C)[C@H](NC(=O)[C@H](CC(C)C)NC(=O)[C@H](Cc1c[nH]c2ccccc12)NC(=O)[C@@H](NC(=O)[C@@H](N)C(C)C)C(C)C)C(=O)N[C@@H](CCCCN)C(=O)N[C@@H](CCCCN)C(=O)N[C@@H](CC(N)=O)C(=O)N[C@@H](CO)C(=O)N[C@H](C(=O)N[C@@H](Cc1ccc(O)cc1)C(=O)N1CCC[C@H]1C(=O)N[C@H](C(=O)N[C@H](C(=O)N[C@@H](CCCCN)C(=O)N[C@@H](CCCNC(=N)N)C(=O)O)[C@@H](C)CC)[C@@H](C)O)[C@@H](C)O [Flu.HA.163] | 464 nM |  | 1660 nM | 14 nM |  |  | 99 nM |  | 
6 | CC(C)C[C@H](NC(=O)[C@H](C)NC(=O)CNC(=O)[C@H](CCC(N)=O)NC(=O)[C@@H](N)[C@@H](C)O)C(=O)N[C@@H](CC(C)C)C(=O)N[C@@H](CC(N)=O)C(=O)N[C@@H](CC(=O)O)C(=O)N[C@@H](CCCCN)C(=O)N[C@@H](Cc1c[nH]cn1)C(=O)N[C@@H](CO)C(=O)N[C@@H](CC(N)=O)C(=O)NCC(=O)N[C@H](C(=O)N[C@H](C(=O)N[C@@H](CCCCN)C(=O)N[C@@H](CC(=O)O)C(=O)O)C(C)C)[C@@H](C)O [Flu.NA.115] |  | 19000 nM |  | 468 nM |  | 177 nM | 822 nM |  | 
7 | CC[C@H](C)[C@H](NC(=O)[C@H](CO)NC(=O)[C@H](CCC(=O)O)NC(=O)CN)C(=O)N[C@H](C(=O)N[C@H](C(=O)N[C@@H](CCC(=O)O)C(=O)N[C@@H](CC(C)C)C(=O)N[C@@H](CC(=O)O)C(=O)N[C@@H](CC(=O)O)C(=O)N1CCC[C@H]1C(=O)N[C@@H](CC(N)=O)C(=O)N[C@@H](C)C(=O)N[C@@H](CC(C)C)C(=O)N[C@@H](CC(C)C)C(=O)O)C(C)C)[C@@H](C)CC [Flu.PA.61] |  |  |  | 59 nM | 80 nM |  |  |  | 
8 | CC[C@H](C)[C@H](NC(=O)[C@@H](NC(=O)[C@H](CC(C)C)NC(=O)[C@H](CO)NC(=O)[C@H](CCC(N)=O)NC(=O)[C@H](CC(=O)O)NC(=O)[C@@H](NC(=O)[C@H](CC(=O)O)NC(=O)[C@H](CC(=O)O)NC(=O)[C@H](CC(N)=O)NC(=O)[C@H](CCCNC(=N)N)NC(=O)[C@@H](NC(=O)[C@H](CCC(=O)O)NC(=O)CNC(=O)CN)C(C)C)C(C)C)[C@@H](C)CC)C(=O)O [Flu.PB2.250] |  |  |  | 2500 nM | 458 nM |  |  |  | 
9 | CC[C@H](C)[C@H](NC(=O)[C@H](CO)NC(=O)[C@H](CC(N)=O)NC(=O)[C@@H](N)CCC(N)=O)C(=O)N[C@H](C(=O)N[C@H](C(=O)N[C@@H](CCC(=O)O)C(=O)N[C@@H](CCCNC(=N)N)C(=O)N[C@@H](CCSC)C(=O)N[C@H](C(=O)N[C@@H](CC(C)C)C(=O)N[C@@H](CO)C(=O)N[C@@H](C)C(=O)N[C@@H](Cc1ccccc1)C(=O)N[C@@H](CC(=O)O)C(=O)O)C(C)C)[C@@H](C)CC)[C@@H](C)O [Flu.NP.61] |  | 430 nM |  |  |  |  | 1200 nM | 1200 nM | 39 nM
10 | CC[C@H](C)[C@H](NC(=O)[C@H](C)NC(=O)[C@@H](N)CCC(N)=O)C(=O)N[C@@H](CCSC)C(=O)N[C@@H](CC(=O)O)C(=O)N[C@@H](CCCCN)C(=O)N[C@@H](CC(=O)O)C(=O)N[C@H](C(=O)N[C@H](C(=O)N[C@@H](CC(C)C)C(=O)N[C@@H](CCCCN)C(=O)N[C@@H](C)C(=O)N[C@@H](CC(N)=O)C(=O)N[C@@H](Cc1ccccc1)C(=O)N[C@@H](CO)C(=O)O)[C@@H](C)CC)[C@@H](C)CC [Flu.NS1.124] |  |  |  |  | 310 nM |  |  |  | 
11 | CC[C@H](C)[C@H](NC(=O)[C@H](CCCNC(=N)N)NC(=O)[C@H](CCCNC(=N)N)NC(=O)[C@@H](NC(=O)[C@H](CCC(=O)O)NC(=O)[C@H](CCC(=O)O)NC(=O)[C@H](CCCCN)NC(=O)[C@H](CC(=O)O)NC(=O)[C@H](Cc1ccc(O)cc1)NC(=O)[C@H](CC(C)C)NC(=O)[C@@H](NC(=O)[C@H](CC(C)C)NC(=O)[C@H](CCC(=O)O)NC(=O)[C@@H](N)CCCNC(=N)N)[C@@H](C)CC)[C@@H](C)CC)C(=O)N[C@@H](Cc1c[nH]c2ccccc12)C(=O)O [Flu.NP.109] |  |  |  |  | 1800 nM | 59 nM |  |  | 
12 | CC[C@H](C)[C@H](NC(=O)[C@H](CC(C)C)NC(=O)[C@H](CCCNC(=N)N)NC(=O)CNC(=O)[C@@H](N)CCC(=O)O)C(=O)N[C@@H](CCC(N)=O)C(=O)N[C@@H](CC(N)=O)C(=O)N[C@@H](CO)C(=O)N[C@H](C(=O)N[C@H](C(=O)N[C@H](C(=O)N[C@@H](CCC(=O)O)C(=O)N[C@@H](CCCNC(=N)N)C(=O)N[C@@H](CCSC)C(=O)N[C@H](C(=O)O)C(C)C)[C@@H](C)CC)[C@@H](C)O)[C@@H](C)CC [Flu.NP.56] |  |  | 15 nM | 55 nM |  |  |  |  | 
13 | CC[C@H](C)[C@H](NC(=O)[C@H](CC(N)=O)NC(=O)[C@H](Cc1ccc(O)cc1)NC(=O)[C@H](CC(C)C)NC(=O)[C@H](CC(N)=O)NC(=O)[C@@H]1CCCN1C(=O)CNC(=O)CNC(=O)[C@H](CC(=O)O)NC(=O)[C@H](CO)NC(=O)[C@@H](NC(=O)[C@H](CC(C)C)NC(=O)[C@H](CC(C)C)NC(=O)CNC(=O)[C@H](C)N)C(C)C)C(=O)O [Flu.PB1.590] | 8120 nM | 3000 nM |  | 105 nM | 3490 nM | 107 nM |  |  | 
14 | CC[C@H](C)[C@H](NC(=O)[C@H](CCSC)NC(=O)[C@H](CC(N)=O)NC(=O)[C@@H](N)CC(N)=O)C(=O)N[C@@H](CC(N)=O)C(=O)N[C@@H](CC(N)=O)C(=O)N[C@@H](CC(=O)O)C(=O)N[C@@H](CC(C)C)C(=O)NCC(=O)N1CCC[C@H]1C(=O)N[C@@H](C)C(=O)N[C@H](C(=O)N[C@@H](C)C(=O)N[C@@H](CCC(N)=O)C(=O)N[C@@H](CCSC)C(=O)O)[C@@H](C)O [Flu.PB1.535] |  | 798 nM |  | 477 nM | 1830 nM | 527 nM |  |  | 
15 | CC(C)C[C@H](NC(=O)[C@H](CO)NC(=O)[C@H](CCCNC(=N)N)NC(=O)[C@H](CC(C)C)NC(=O)[C@H](CCC(=O)O)NC(=O)[C@@H]1CCCN1C(=O)[C@H](CCC(=O)O)NC(=O)[C@H](CC(=O)O)NC(=O)[C@H](CO)NC(=O)[C@H](CC(=O)O)NC(=O)[C@H](Cc1ccc(O)cc1)NC(=O)[C@H](CCC(N)=O)NC(=O)[C@H](CCCCN)NC(=O)[C@@H](N)CC(C)C)C(=O)N[C@@H](CO)C(=O)O [Flu.PA.393] | 17700 nM | 7260 nM |  |  | 5800 nM | 88 nM |  |  | 
16 | CC[C@H](C)[C@H](NC(=O)[C@H](CCC(=O)O)NC(=O)[C@H](CC(=O)O)NC(=O)[C@H](CC(C)C)NC(=O)[C@H](CCC(=O)O)NC(=O)[C@@H](NC(=O)[C@H](Cc1c[nH]c2ccccc12)NC(=O)[C@@H](NC(=O)[C@@H](N)CO)[C@@H](C)CC)[C@@H](C)CC)C(=O)NCC(=O)N[C@@H](CCC(=O)O)C(=O)N[C@@H](CC(=O)O)C(=O)N[C@H](C(=O)N[C@@H](C)C(=O)N1CCC[C@H]1C(=O)O)C(C)C [Flu.PA.423] | 13400 nM | 5400 nM |  |  | 7610 nM | 59 nM |  |  | 
